By melting point is commonly meant the temperature, or range, at which the solid turns liquid. In general, Emax refers to the greatest response seen or fitted, relative to the assay's reference.

Six molecules from patent publication US8592422B2, “Bicyclic triazole and pyrazole lactams as allosteric modulators of mGluR5 receptors” (Vanderbilt University, priority 2010, dated 2013) can be followed below.

The test system of data set [1] is male Sprague-Dawley rats. The experiment in a line: Reversal of amphetamine-induced hyperlocomotion. Type of data set: in vivo, rat. The note with it: oral gavage, doses per FIG. 4; amphetamine 1 mg/kg sc. The protocol: Locomotor activity was assessed as mean distance traveled (cm) in standard 16×16 photocell testing chambers measuring 43.2 cm (Length)×43.2 cm (Width)×30.5 cm (Height) (Med Associates, St. Albans, Vt.). Animals were habituated to individual activity chambers for at least 30 min prior to drug administration. Following administration of drug or vehicle, activity was recorded for a 90 minute time period. Data was expressed as the mean (±SEM) distance traveled recorded in 5 min intervals over the test period. The data was analyzed using repeated measures analysis of variance (ANOVA) followed by post-hoc testing using Dunnett's test, when appropriate. A difference was considered significant when p≦0.05. […]
The animals were habituated in Smart Open Field locomotor activity test chambers (Hamilton-Kinder, San Diego, Calif.) with 16×16 photobeams to automatically record locomotor activity for 30 min and then dosed with vehicle or test compound. […] At 60 min, all rats were injected subcutaneously with 1 mg/kg amphetamine or vehicle and then monitored for an additional 60 min. Animals are monitored for a total of 120 minutes. Data are expressed as changes in ambulation defined as total number of beam breaks per 5 min periods.
The data for the dose-response studies were analyzed by a between-group analysis of variance. […]

For data set [2], the target named is T1, human mGluR5a receptor (Homo sapiens, UniProt P41594).
T1 construct: cDNA subcloned into pcDNA3.1(-)
T1 sequence (P41594 21-1180 isoform P41594-2 limits assumed): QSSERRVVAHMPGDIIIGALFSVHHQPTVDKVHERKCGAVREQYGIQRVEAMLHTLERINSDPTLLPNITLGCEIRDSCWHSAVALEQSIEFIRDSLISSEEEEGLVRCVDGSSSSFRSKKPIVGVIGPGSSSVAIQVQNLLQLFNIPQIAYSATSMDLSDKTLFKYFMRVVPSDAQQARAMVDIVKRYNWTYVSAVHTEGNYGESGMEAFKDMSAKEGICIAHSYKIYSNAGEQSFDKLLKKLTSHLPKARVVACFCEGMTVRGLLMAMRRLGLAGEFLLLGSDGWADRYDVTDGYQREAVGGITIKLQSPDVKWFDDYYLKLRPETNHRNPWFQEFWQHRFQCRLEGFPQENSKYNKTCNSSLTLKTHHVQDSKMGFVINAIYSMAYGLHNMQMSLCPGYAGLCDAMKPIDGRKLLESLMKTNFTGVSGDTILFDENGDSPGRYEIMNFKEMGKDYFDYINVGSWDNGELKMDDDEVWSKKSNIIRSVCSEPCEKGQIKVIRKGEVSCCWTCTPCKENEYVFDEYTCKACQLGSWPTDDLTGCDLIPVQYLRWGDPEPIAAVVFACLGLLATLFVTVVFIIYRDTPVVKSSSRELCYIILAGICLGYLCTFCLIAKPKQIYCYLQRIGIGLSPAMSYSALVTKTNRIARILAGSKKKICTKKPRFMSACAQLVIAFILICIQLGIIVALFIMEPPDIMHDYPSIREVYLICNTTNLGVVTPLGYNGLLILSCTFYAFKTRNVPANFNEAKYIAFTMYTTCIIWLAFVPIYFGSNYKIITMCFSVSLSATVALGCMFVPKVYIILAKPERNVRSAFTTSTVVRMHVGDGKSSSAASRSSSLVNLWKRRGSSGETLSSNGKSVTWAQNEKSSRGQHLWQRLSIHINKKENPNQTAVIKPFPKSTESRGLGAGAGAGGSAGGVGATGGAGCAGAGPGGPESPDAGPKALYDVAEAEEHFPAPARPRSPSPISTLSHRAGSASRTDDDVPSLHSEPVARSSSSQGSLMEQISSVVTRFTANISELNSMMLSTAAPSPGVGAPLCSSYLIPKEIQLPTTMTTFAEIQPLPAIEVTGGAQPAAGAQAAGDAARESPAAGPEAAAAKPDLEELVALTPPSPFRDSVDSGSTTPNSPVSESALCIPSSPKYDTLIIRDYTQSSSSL
The experiment in a line: Cell-based functional Ca2+ mobilization assay (FDSS), potentiation of glutamate EC20 response. The note with it: for EC50: HEK cells transfected with human mGluR5 (H10H or H12H), in presence of EC20 glutamate; for Emax: maximum % effect in concentration-response curve, as percent of response to maximally effective glutamate. The procedure, abridged: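 HEK293A cells stably expressing human mGluR5a (H10H or H12H clones), plated overnight in glutamate-glutamine-free medium, loaded with Ca2+-sensitive dye (e.g. Fluo-4) and read on FDSS.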
Background: A change in cytosolic calcium serves as a functional read-out for many receptors and channels.

Where two headings read alike, the source gives them in different places. A value given as a limit tells only on which side of the number the result lay.

Regarding `O=C1c2cc(COc3ccccc3)nn2CCN1c1ccc(F)cn1`, the “reversal of amphetamine-induced hyperlocomotion” value in data set [1] was “reversal of amphetamine-induced hyperlocomotion”.
As to `COc1nc(N2CCn3nc(COc4ccc(F)cc4)cc3C2=O)ncc1F` [Example 318], the melting point was more than 300 °C. For the same molecule, the EC50 in data set [2] (read-out: EC50) came to 240 nM. Also, the maximum response (Emax) in data set [2] was determined as 72%.
Consider `Cc1ccc(N2CCn3nc(COc4ccccc4)cc3C2=O)s1` [Example 319], for which the melting point came out at 194.5 °C. Besides, the EC50 in data set [2] (read-out: pEC50 (converted)) was 28.8 nM. In addition, the maximal effect (Emax) in data set [2] is 68%.
The molecule `Cn1cnc(N2CCn3nc(COc4ccccc4)cc3C2=O)c1` [Example 321] gave a melting point of 203.7 °C. The EC50 in data set [2] (read-out: EC50) is more than 30200 nM. The Emax in data set [2] was 23%.
The matching figures for `COc1cnc(N2CCn3nc(COc4ccccc4)cc3C2=O)nc1` [Example 353]: 266.9 °C, 280 nM and 61%.
For `O=C1c2cc(COc3ccc(O)cc3)nn2CCN1c1ccc(F)cn1` [Example 355] the same measures were 212.7 °C, 3630 nM and 55%.
